Data reported in article PMC6776562, “Inhibition of Rac1-dependent forgetting alleviates memory deficits in animal models of Alzheimer’s disease” (Protein & Cell, 2019).
Entries after “also recorded” stand apart in the source; their conditions may differ.

What was measured:
APP/PS1 mice = experiment: Morris water maze (MWM) spatial learning in AD mice; assay type: in vivo, mouse; details: APP/PS1 mice (eight-month-old); oral CS7171 50 mg/kg, CS7170 50 mg/kg, JKF-034 40 mg/kg once per day
Protocol: Mice were treated with EHop-016 (10 mg/kg), CS7170 (50 mg/kg), CS7171 (50 mg/kg), and JKF-034 (40 mg/kg). These drugs were dissolved in saline (0.9% NaCl) containing 0.5% Tween-80 (Sigma P4780). Each mouse received 200 μL of the solution by intragastric administration once per day (administered at 9:00 am). The drug administration was started seven days before the beginning of the Morris water maze (MWM) task and was continued until the end of the assay. All control groups were fed with vehicle solution.
The MWM test, a classic paradigm used to study spatial reference memory, was performed (Vorhees and Williams, [2006]). Briefly, a circular polypropylene water tank (120 cm in diameter) was filled with opaque water and milk (20 °C ± 1 °C) and a transparent platform (15 cm diameter) was submerged (2 cm below the water surface) in the center of one of the four virtually divided quadrants. Distal cues were fixed on the wall of the tank as spatial references. For the classic training paradigm (Figs. 2 and 6), mice were allowed to find the platform within 60 s and to remain on it for at least 5 s. For the modified training paradigm (Fig. 3A), mice were trained over 5 consecutive sessions with a 1-h intervals within one day. After training, mice were returned to their home cages and the memory of the location of the platform was tested at 6 h after training (Fig. 3C–D). A mouse behavior tracking software (ANY-maze software) was used to record data automatically.

[1] = Pharmacokinetics study in CD1 mice; assay type: in vivo; details: for AUC0-infinity / AUC0-t / T1/2 / Tmax / F (bioavailability): CD1 mice; for AUC0-infinity / AUC0-t / T1/2 / Tmax: plasma, estimated value, n = 3; for AUC0-infinity / AUC0-t / T1/2: P.O 50 mg/kg CS7171, 40 mg/kg JKF-034 (I.V 10 and 2.5 mg/kg), route of the parameter not stated; for Tmax: P.O 50 mg/kg CS7171, 40 mg/kg JKF-034; for F (bioavailability): P.O 50 mg/kg vs I.V 10 mg/kg CS7171, P.O 40 mg/kg vs I.V 2.5 mg/kg JKF-034
Protocol: For the CS7171 and JKF-034 pharmacokinetics (PK) assays, 30 CD1 mice were purchased from JH Laboratory Animal Co. LTD (Qualification No: SCXK (SH) 2017-001220170012002565). A total of 18 CD1 mice were grouped for intravenous injection (I.V) with 10 mg/kg CS7171 and 2.5 mg/kg JKF-034. Sampling was performed at 0.083, 0.25, 0.5, 1, 3, 6 and 24 h after administration. A total of 12 CD1 mice were grouped for oral administration (P.O) of 50 mg/kg CS7171 and 40 mg/kg JKF-034. Sampling was performed at 0.25, 0.5, 1, 3, 6 and 24 h after administration. The blood samples were maintained in wet ice first and centrifuged to obtain plasma within 15 min post-sampling. Subsequently, the samples were subjected to LC-MS/MS analysis.

[2] = In vitro metabolic stability in monkey liver microsomes; assay type: in vitro ADME
Protocol: Measurements of metabolic stability can be performed with liver microsomes, which are known to contain the major drug-metabolizing enzymes and UDP-glucuronosyltransferase (Baranczewski et al., [2006]). The in vitro metabolic stability levels of CS7171 and JKF-034 were measured using human, monkey, and mouse liver microsomes. The metabolic half-time (T1/2) and intrinsic clearance (Clint) were assayed using LC-MS analysis. Ketanserin is a potent, orally effective antagonist of endogenous serotonin. Its pharmacological profile is well studied (Brogden and Sorkin, [1990]). In this study, we used ketanserin as a control. If the T1/2 of the tested compound was 30–120 min, the compound was considered to show moderate metabolism in liver microsomes. If the T1/2 value was less than 30 min, the compound was considered to be susceptible to metabolism in liver microsomes.

RhoA = RhoA activity (RhoA-GTP) by Western blot after drug administration; assay type: in vivo; details: 7-month-old APP/PS1 mice; two weeks of P.O administration
Protocol: (§1) The hippocampal tissues from human subjects and mice were harvested and stored in a liquid nitrogen tank for biochemical assay. The tissues were homogenized in cold lysis buffer (Merck-Millipore, 20-168). The insoluble debris were removed after centrifugation at 13,000 rpm (for 10 min, at 4 °C). For GTP-bound Rac/Cdc42, lysates were incubated with GST-tagged PAK (p21-activated kinase)-PBD agarose beads (Cytoskeleton, PAK02) overnight at 4 °C. On the second day, the beads were washed three times with lysis buffer before subjecting them to SDS-PAGE (15%) and transferring them onto nitrocellulose membranes (Millipore, HATF00010). The membranes were incubated with primary antibodies (for Rac1: BD Transduction Laboratories, #610650, 1:2,000 dilution; for Cdc42, Santa Cruz Biotechnology, lot No. sc-8401, 1:500 dilution) overnight at 4 °C and with HRP-conjugated goat anti-mouse IgG (Cell Signaling Technology, #7076) for 1 h at room temperature. Intensities of the detected bands were analyzed using ImageJ software (National Institutes of Health). The total amount of Rac1 in the lysate was detected using a routine Western blot procedure. RhoA-GTP levels were measured by using the Rho-GTP monoclonal antibody (New East, lot No. 26904, Dilution: 1:1,000). […] Data information: All values are expressed as mean r SEM.

Cdc42 = Cdc42 activity (Cdc42-GTP) by Western blot after drug administration; assay type: in vivo; details: 7-month-old APP/PS1 mice; two weeks of P.O administration
Protocol: as §1

AUC0-infinity [1] | AUC0-t [1] | T1/2 [1] [min] | Tmax [1] [min] | F (bioavailability) [1] [%] | Clint [2] [mL/min/kg] | T1/2 [2] [min] | Compound | MWM learning deficit / spatial memory (APP/PS1 mice) | metabolic half-time (T1/2) of JKF-034 relative to CS7171 ([1]; CD1 mice PK) | RhoA activity (RhoA) | Cdc42 activity (Cdc42)
1,692 h*ng/mL | 1,262 h*ng/mL | 551 | 30 | 19.3 | 401.14 | 5.05 | O=S(=O)(c1ccccc1)N1CCN(Cc2ccccc2)CC1 [JKF-034] | effective; also recorded: rescued | about ten times higher than that of CS7171 | did not affect | did not affect
4,160 h*ng/mL | 4,101 h*ng/mL | 56.6 | 15 | 28.2 | 229.15 | 8.85 | O=C1NN(c2ccc(Cl)c(Cl)c2)C(=O)C1=Cc1ccc(O)c(N(O)O)c1 [CS7171] | mitigated learning deficits; also recorded: rescued; also recorded: effective |  | did not affect | did not affect
